Experimental data published in PMC12292445, “Physiologically Based Pharmacokinetic Modeling for Predicting Drug Levels After Bariatric Surgery: Vardenafil Exposure Before vs. After Gastric Sleeve/Bypass” (Biomolecules, 2025).
Values after ≈ are worked out from the molar mass of the structure shown. Like-named read-outs stand apart in the source and are kept apart here. One block for each compound: values may come before it.

Experiments:
[1] = stated in discussion, no source given; cited from earlier work
[2] = set-up: method as in earlier work; conditions: healthy fasted humans, digitized mean profile, cited from earlier work
clinical = assay: clinical
Protocol: Values were either obtained from the literature, in silico predictions (ADMET Predictor® module, version 10.4.0.0; Simulations Plus Inc., Lancaster, CA, USA) based on the drug’s molecular structure, or experimentally determined. pH-dependent solubility data were input as an .spd file and used to fit the solubility factors in the solubility model. Drug dissolution along the GIT was calculated using the software default Johnson equation [58] based on the drug’s solubility and particle size. With the lack of data on commercial product drug particle size, 100 µm was chosen as an approximate value for all simulations. Regarding poor aqueous solubility, bile salts’ effect on drug solubility/dissolution was also accounted for. The drug precipitation time was set as the default 900 s. […] The distribution and elimination PK parameters of vardenafil were based on available data of in vivo plasma concentration over time following IV and PO drug administration, using the software-integrated PKPlus^TM module and optimized further while keeping the final values within the reported literature range (Table 3).

physchem [3] = assay type: physicochemical; conditions: human; for solubility: thermodynamic from solid
Protocol: The equilibrium solubility of vardenafil in gastric content was also tested using the shake-flask method mentioned above, which followed a procedure that had been recently described. In short, excess drug was added to glass vials containing samples of gastric content aspirated from three patients (1 SG, 1 RYGB, and 1 OAGB) during bariatric procedure time. Aspiration was performed through the nasogastric tube at three time points: before, immediately after , and 24 h post-surgery. Study protocol approval was given by the Ben-Gurion University School of Medicine institutional review board (institutional board request number 0248-18-SOR), and informed consent was obtained from all the participants prior to surgery. Following gastric content collection, pH was immediately measured and recorded. […] As vardenafil hydrochloride powder modified the pH of the post-bariatric gastric fluid, pH was adjusted with a small volume pH 7 buffer, as necessary.

physchem [4] = assay type: physicochemical
Protocol: The equilibrium solubility of vardenafil was determined by the previously described shake-flask method. Four different medium pHs were used: pH 1 and pH 3 (0.2 M maleic acid), pH 5 (0.2 M acetic acid), and pH 7 (0.2 M dihydrogen phosphate). Quadruplet (n = 4) samples of each buffer pH were prepared with drug powder added in excess, until saturation, to vials with 500 µL medium solution. Vial incubation was at 37 °C, with 200 rpm sample shaking for 24 h (Orbital Shaker Incubator, MRC Laboratory Instruments, Holon, Israel). Sample contents were then transferred to Eppendorf tubes for a 10 min centrifugation (Centrifuge 5430 R, Eppendorf®, Hamburg, Germany) at 20,817 rcf and 37 °C. Obtained supernatants were diluted as needed and immediately analyzed by UPLC-PDA (Table 1).

[5] = In vitro dissolution of whole tablets under pre- vs post-bariatric gastric conditions; assay type: physicochemical; conditions: Levitra 20 mg tablet
Protocol: The dissolution of whole tablet vardenafil (20 mg) products was studied in three different conditions, as previously described (n = 4 for each condition): (1) pH 1 maleic acid, 250 mL medium (pre-surgery conditions), with the USP dissolution apparatus II (Premiere 5100, Distek®, North Brunswick, NJ, USA), at 100 rpm paddle rotation; […] This rotation velocity was calculated, addressing the following parameters: the paddle size (D), volume of fluid (V), and agitation strength (ε), as follows: εlong/εshort=RPMlong3 × Dlong5/Vlong/RPMshort3 × Dshort5/Vshort These adjusted experimental conditions mimic pre- vs. post-bariatric intragastric dissolution conditions, including the pH, temperature, fluid volume, and contractility force, and were thus preferred over standard, compendial dissolution methods. Next, 300 µL samples were drawn for 90 min at 10 different time points and then filtered prior to ultra-performance liquid chromatography (UPLC) analysis (Table 1).

[6] = estimated with PKPlus from in vivo IV and oral data, then optimized

SMILES: CCCc1nn(C)c2c(=O)[nH]c(-c3cc(S(=O)(=O)N4CCN(C)CC4)ccc3OCC)nc12 [sildenafil]
pKa [1]: ~ 7

Distribution constant k12 (clinical; [6]): 3.090 h⁻¹ | Distribution constant k13 (clinical; [6]): 0.448 h⁻¹ | Distribution constant k21 (clinical; [6]): 2.100 h⁻¹ | Distribution constant k31 (clinical; [6]): 0.250 h⁻¹ | Vd (clinical; human): 0.8 L/kg | clearance (clinical; human): 15.4 mL/min/kg | Lower ex vivo solubility after vs. before the surgery (physchem [3]): > 500 fold | solubility (physchem [3]; pH 2, plasma or biological fluid): > 30 mg/mL | solubility (physchem [3]; pH 7, plasma or biological fluid): 0.06 mg/mL (≈ 0.123 mM) | solubility at 24 h (physchem [4]; 37 °C, pH 3, aqueous buffer, thermodynamic from solid): > 30 mg/mL | solubility at 24 h (physchem [4]; 37 °C, pH 5, aqueous buffer, thermodynamic from solid): 27.4 mg/mL (≈ 56.1 mM) | solubility at 24 h (physchem [4]; 37 °C, pH 7, aqueous buffer, thermodynamic from solid): 0.05 mg/mL (≈ 0.102 mM) | Decrease in saturation solubility (physchem [4]; 24 h): over 600 fold | Solubility at 37 °C (physchem [4]; 24 h, pH 1): 30 mg/mL (≈ 61.4 mM) | Solubility at 37 °C (physchem [4]; 24 h, pH 3): 30 mg/mL (≈ 61.4 mM) | solubility at 24 h (physchem [4]; pH 1): > 30 mg/mL | Dissolution (dose dissolved) ([5]; post-OAGB conditions, pH 7, 50 mL): 4% | Dissolution (dose dissolved) ([5]; post-SG conditions, pH 5, 50 mL): 100% | Dissolution (dose dissolved) ([5]; pre-surgery conditions, pH 1, 250 mL): 100%
SMILES: CCCc1nc(C)c2c(=O)[nH]c(-c3cc(S(=O)(=O)N4CCN(CC)CC4)ccc3OCC)nn12 [vardenafil]
AUC0−inf, observed ([2]; 10 mg single oral dose): 27.29 ng·h/mL | Cmax, observed ([2]; 10 mg single oral dose): 7.20 ng/mL | Tmax, observed ([2]; 10 mg single oral dose): 57 min | AUC0−inf, observed ([2]; 20 mg single oral dose): 41.86 ng·h/mL | Cmax, observed ([2]; 20 mg single oral dose): 16.30 ng/mL | Tmax, observed ([2]; 20 mg single oral dose): 46.8 min | pKa [1]: ~ 7
